Values quoted from earlier work, collected in patent US20060246003A1, “Composition containing anti-dementia drug” (priority 2004, published 2006).
Structures can show the parent of a compound that is named as a salt.

Test system: patients with moderate to severe Alzheimer-type dementia
Conditions: memantine hydrochloride added in patients already administered donepezil hydrochloride, compared to placebo group

Compound: CC12CC3CC(C)(C1)CC(N)(C3)C2 [memantine hydrochloride]
- cognitive ability and activities of daily living: improved
